# Source: patent US11299715B2, “Use of iNOS inhibitors to increase viral yield in culture” (priority 2013, dated 2022)
# Legend:
# NOS3 = eNOS = test: Affymetrix Gen Array, NOS3 expression in 293 cells; assay type: cell-based, human; settings: probe 205581_s_at
# Protocol: (§1) Confluent 293 cells (2.4×10^6 cells in a 75 cm^2 flask) were cultured in DMEM+10% FCS for approximately 20 hrs and were then infected with one plaque forming unit per cell (PFU/cell) of HSV-1 MacIntyre Strain for 90 min. ATA at a concentration 20 μM (final) was added 90 min post-infection. The infected cells were harvested at 24 h after infection. Total RNA of sufficient quality and quantity was isolated from suspension using RNeasy Plus Mini Kit (QIAGEN, Valencia, Calif.) according to the manufacturer's instructions. Whole genome expression profiling was performed on Affymetrix Human U133 Plus 2.0 Array by the Asuragen, Inc. 3 μg total RNA was provided as input material.
# (§2) Overall, RNA quality assessed on the bioanalyzer had RIN values of >9. Array hybridization and scaling factors were within passing quality control range. After scanning, raw expression CEL files were processed with Affymetrix Expression Console vs.1.1.2 (affymetrix.com). Each CEL file was processed with Robust Multichip Analysis (RMA) and a summarized table was exported as a text file. All downstream genomics and statistical analyses were done with JMP Genomics (version 5) (jmp.com/software/genomics). First, a filtering step was applied to filter-out low expression, specifically, those values below 6 in log^2 mode in at least 2 out of 8 samples. […]
# wtHSV-1 KOS strain = wtHSV-1 KOS strain propagation in 293, HeLa and Vero cells with ATA; assay type: cell-based, HSV-1
# Excerpt: The wtHSV-1 KOS strain and the ICP27-deficient derivatives of the wtHSV-1 KOS strain: vectors d27-1 (Rice and Knipe, J. Virol. (1990) 64:1704-1715), rHSV-rep2/cap2 and rHSV-EGFP (Kang et al., Gene Ther. (2009) 16:229-239) and their producer ICP27-complementing V27 cell line were obtained from AGTC (Alachua, Fla.). The wtHSV-1 MacIntyre strain, purchased from Advanced Biotechnologies Inc. (ABI, Columbia Md.) and wtHSV-1 KOS strain were propagated in Vero, 293 or HeLa cell lines. Infectious vector particles were harvested 72 hr postinfection by recovering culture supernatant. The titers of HSV-1 stocks in DNase resistant particles/ml (DRP/ml) were determined by Taqman assay. Viral genomes within crude culture medium were quantified via treatment in the presence of DNase I (50 U/ml final; Promega) at 37° C. for 60 min, followed by proteinase K (Invitrogen) digestion (1 U/ml) at 50° C. for 60 min, and then denatured at 95° C. for 30 min. Linearized plasmid pZero 195 UL36 (obtained from AGTC, Inc., Alachua, Fla.) was used to generate standard curves.
# ATA (Sigma-A1895 Aurintricarboxylic acid practical grade, ≥85% (titration), powder) stock solution was generated as 500 μM concentration in 100 mM sodium bicarbonate water solution. ATA stock solution was further diluted in DMEM+/−10% fetal bovine serum (FBS, Hyclone, Waltham, Mass.) into concentration ranges of […] ATA (8.5-21 μgATA/ml). The HSV-1 infection at multiplicity of infection of 0.15 (MOI=0.15) (typically 6×10^5 cells in a 6-well plate) was performed in 40% (⅖ vol) of the total final media volume for 1-2 hrs and the remaining media (60% or ⅗ of the total final volume) was added during the dilution step. The cells were then incubated 72 hours and supernatant harvested to perform forming units per milliliter (PFU/ml) and DRP/ml titer assays.
# Supernatants containing virus were harvested after three days as described above. […] Finally, ATA also appeared to inhibit both types of HSV-1 viruses in HeLa cells. Two-way ANOVA; Bonferroni test; −ATA vs. +ATA: ***: p<0.001, ns: p>0.05; n=4 independent experiments.
# In order to illuminate the ATA mechanism of action by human genome array and the fact that Vero and V27 are monkey-derived cell lines, wtHSV-1 propagation was tested in several human cell lines (FIGS. 4A-4B). A propagation of two wild type HSV-1 (wtHSV-1) strains, KOS and McIntyre, were compared in three cell lines: human embryonic kidney 293 (293 cells), human cervical cancer HeLa cells and African green monkey kidney epithelial Vero cells. The experiments were carried out in 10% FBS-containing media following the ATA I protocol scheme, where 50 μM ATA was supplemented during the infection step and further diluted to 20 μM ATA concentration (see Material and Methods).
# NOS2 = iNOS = test: Affymetrix Gen Array, NOS2 expression in 293 cells; assay type: cell-based, human; settings: AF049656
# Protocol: as §1, §2
# [1] = SABiosciences (QIAGEN) Jak-Stat RT-PCR Microarray in 293 cells; assay type: cell-based, human; settings: listed as printed as NOS1, 240911_at
# Protocol: 6×10e5 293 cells (from AGTC) were infected with wtHSV-1 McIntyre strain at MOI 1 in the presence of DMEM & 10% FBS with or without 50 uM ATA and 1-2 hours and diluted to 40% with DMEM & 10% FBS (final ATA concentration of 20 uM). Triplicate total RNA samples were harvested 24 hrs later using Qiagen RNeasy mini kit and DNase treated on the column and eluted. Eluate RNA triplicate samples were combined and photospectrometer O.D. readings were performed on the eluate at 260 and 280 nm to determine concentration. Sample RNA was converted into template cDNA using SABiosciences RT2 first strand kit. The cDNA was then used in the Human JAK/STAT Signaling Pathway PCR Array (PAHS-039A).
compound,measurement,setting,value
"O=C(O)C1=CC(=C(c2ccc(O)c(C(=O)O)c2)c2ccc(O)c(C(=O)O)c2)C=CC1=O [ATA, 5-((3-carboxy-4-hydroxyphenyl)(3-carboxy-4-oxo-2,5-cyclohexadien-1-ylidene)methyl)-2-hydroxybenzoic acid]","NOS3 expression, ATA",NOS3 = eNOS; ATA alone,1.24
same,"NOS3 expression, HSV + ATA","NOS3 = eNOS; HSV + ATA, HSV alone 2.45",1.94
same,HSV-1 KOS growth in 293 cells,"wtHSV-1 KOS strain; 50 μM ATA at Step 1, 20 μM after Step 2, 293 cells",inhibit
same,propagation of HSV-1 KOS in HeLa cells,"wtHSV-1 KOS strain; 50 μM ATA at Step 1, 20 μM after Step 2, HeLa cells",inhibit
same,yield of wtHSV-1 KOS in Vero cells,"wtHSV-1 KOS strain; 50 μM ATA at Step 1, 20 μM after Step 2, Vero cells, 10% FBS",increased
same,wtHSV-1 KOS titer in Vero cells,"wtHSV-1 KOS strain; 50 μM ATA at infection, diluted to 20 μM, 10% FBS, n=4, without ATA 1.7×10^8",9.1×10^8 DRP/ml
same,"293 or Vero titers with ATA, KOS",wtHSV-1 KOS strain; summary statement,up to 1×10^9 DRP/ml
same,increase of wt HSV-1 KOS yields,wtHSV-1 KOS strain; summary statement,1 log
same,"NOS2 expression, ATA",NOS2 = iNOS; ATA alone,−1.03
same,"NOS2 expression, HSV + ATA","NOS2 = iNOS; HSV + ATA, HSV alone 2.05",1.72
same,"expression, ATA (Jak-Stat RT-PCR Microarray)",[1]; ATA alone,1.02
same,"expression, HSV + ATA (Jak-Stat RT-PCR Microarray)","[1]; HSV + ATA, HSV alone 1.71",1.5
